Test results: US10245249B2, “Pharmaceutical compositions comprising nitroxyl donors” (Cardioxyl Pharmaceuticals, Inc., priority 2013, dated 2019)
“And” between values parts separate entries of the source, which are not always exact repeats. Equal values may be shown once.

Test: Concentrate storage stability, compound of formula (2) 30 mg/mL in 30% CAPTISOL pH 4.0 (Example 8)
Type: physicochemical
Set-up: key to Appearance 0 h / Appearance 24 h / Appearance 72 h / Appearance 168 h: the term “c/c” refers to clear and colorless
Conditions: for Concentration, mg/mL 0 h / Concentration, mg/mL 24 h / Concentration, mg/mL 72 h / Concentration, mg/mL 168 h: 30 mg/mL concentrate in 30% CAPTISOL pH 4.0; for Appearance 0 h / Appearance 24 h / Appearance 72 h / Appearance 168 h / Observed Degradant, Compound of Formula (101), mg/mL 0 h / Observed Degradant, Compound of Formula (101), mg/mL 24 h / Observed Degradant, Compound of Formula (101), mg/mL 72 h / Observed Degradant, Compound of Formula (101), mg/mL 168 h / pH 0 h / pH 24 h / pH 72 h / pH 168 h: concentrate
Experimental: The storage stability of a liquid concentrate of the Compound of formula (2) (30 mg/mL) in the vehicle 30% CAPTISOL® (w/v) at pH 4.0, was assessed at 4° C. and 25° C. over 7 days, with time points after 1, 3 and 7 days. At each time point samples were assessed for visual appearance, pH, and concentration and purity by HPLC (XBridge Phenyl Column (Waters); UV absorbance detector at 272 nm; mobile phase a step gradient of aqueous acetonitrile containing 0.1% (v/v) formic acid).
The selected vehicle, CAPTISOL® (30% w/v) in water with pH adjusted to 4.0, was prepared by accurately weighing 30 grams of CAPTISOL® into a 150 mL beaker and dissolved with 45 mL of water. The pH was adjusted to pH 4.0 by addition of 0.1N HCl. Subsequently, the vehicle was transferred to a volumetric flask and brought to 100 mL final volume by addition of water. After incubation at a temperature of about 25° C. for 30 minutes, the pH of the vehicle was re-adjusted to pH 4.0 by addition of 0.1N HCl. The vehicle formed a clear, colorless solution.
A concentrated solution of the compound of formula (2) was prepared as follows. A stir bar and 30 mL of vehicle were added to a 150 mL beaker. Approximately […] of the compound of formula (2) was dispensed and transferred to the beaker under low to medium stirring. After 45 minutes of stirring at a temperature of about 25° C. (protected from light), the concentrate formed a clear, colorless solution with some small, white clumps of the compound of formula (2) floating in solution. The remaining clumps were gently broken-up using a spatula. Following an additional 45 minutes of stirring, the concentrate formed a clear, colorless solution without any visible solids. The concentrate was then filtered (0.2 μm) through a 0.22 μm PVDF syringe filter.
For t=0 h testing, aliquots were distributed into vials and analyzed by HPLC (XBridge Phenyl Column (Waters); UV absorbance detector at 272 nm; mobile phase a step gradient of aqueous acetonitrile containing 0.1% (v/v) formic acid) and the sample pH was determined. Twelve aliquots of 1 mL of the concentrate were distributed into microcentrifuge tubes for storage at 4° C. and 25° C. After approximately 24, 72 and 168 hours of storage, two aliquots were removed from each storage condition and assessed for visual appearance, pH, and concentration and purity by HPLC. […] The pH of the samples stored at 4° C. and 25° C. decreased from 3.7 to 3.6 and 3.3, respectively, over the 7 days. In Table 12, the term “c/c” refers to clear and colorless.

Compound: CS(=O)(=O)c1cccc(S(=O)(=O)NO)c1 [Compound 2, N-Hydroxy-3-methanesulfonylbenzene-1-sulfonamide]
- concentration sustained (4° C. and 25° C., over 7 days): 30000 µg/mL
- known degradant (compound of formula (101)) (4° C. and 25° C., over 7 days): No detectable levels
- visual appearance of all samples (4° C. and 25° C., over 7 days): clear, colorless solutions
- Concentration, mg/mL 0 h (4° C.): 30.3 mg/mL
- Concentration, mg/mL 24 h (4° C.): 30.6 mg/mL and 30.2 mg/mL
- Concentration, mg/mL 72 h (4° C.): 29.6 mg/mL and 29.4 mg/mL
- Concentration, mg/mL 168 h (4° C.): 29.7 mg/mL and 29.9 mg/mL
- Appearance 0 h (4° C.): c/c
- Appearance 24 h (4° C.): c/c
- Appearance 72 h (4° C.): c/c
- Appearance 168 h (4° C.): c/c
- Observed Degradant, Compound of Formula (101), mg/mL 0 h (4° C.): No
- Observed Degradant, Compound of Formula (101), mg/mL 24 h (4° C.): No
- Observed Degradant, Compound of Formula (101), mg/mL 72 h (4° C.): No
- Observed Degradant, Compound of Formula (101), mg/mL 168 h (4° C.): No
- pH 0 h (4° C.): 3.7 and 3.71
- pH 24 h (4° C.): 3.70
- pH 72 h (4° C.): 3.66
- pH 168 h (4° C.): 3.6 and 3.61 and 3.58
- Concentration, mg/mL 0 h (25° C.): 30.3 mg/mL
- Concentration, mg/mL 24 h (25° C.): 30.2 mg/mL
- Concentration, mg/mL 72 h (25° C.): 29.4 mg/mL and 29.8 mg/mL
- Concentration, mg/mL 168 h (25° C.): 29.5 mg/mL and 29.4 mg/mL
- Appearance 0 h (25° C.): c/c
- Appearance 24 h (25° C.): c/c
- Appearance 72 h (25° C.): c/c
- Appearance 168 h (25° C.): c/c
- Observed Degradant, Compound of Formula (101), mg/mL 0 h (25° C.): No
- Observed Degradant, Compound of Formula (101), mg/mL 24 h (25° C.): No
- Observed Degradant, Compound of Formula (101), mg/mL 72 h (25° C.): No
- Observed Degradant, Compound of Formula (101), mg/mL 168 h (25° C.): No
- pH 0 h (25° C.): 3.71
- pH 24 h (25° C.): 3.47 and 3.48
- pH 72 h (25° C.): 3.34
- pH 168 h (25° C.): 3.3 and 3.32
